According to patent US11505536B2, “Dihydroorotate dehydrogenase inhibitors” (Janssen Biotech, Inc., priority 2019, dated 2022):

Legend:
[1] = test system: MOLM-13 cells (human acute myeloid leukemia cells); experiment: MOLM-13 Cellular Assay; type: cell-based; conditions: Homo sapiens, MOLM-13, 72 h, 72 hours exposure, cell viability by CellTiter-Glo
Procedure: The following assay is referred to herein as the “MOLM-13 Cellular Assay.” MOLM-13 cells (human acute myeloid leukemia cells) were obtained from DSMZ and were maintained in RPMI 1640+Glutamax+25 mM HEPES (Invitrogen, catalog number 72400) supplemented with 10% heat inactivated fetal bovine serum (FBS; Invitrogen, catalog number 16140). The day prior to assay set-up, cells were pelleted, resuspended in fresh media, counted, and cells were plated at 0.4×10^6 cell/mL in a T150 flask. On the day of the assay, cells were pelleted, resuspend in fresh media, counted and seeded at 5,000 cells/well in white opaque 96-well tissue culture treated microplates (Perkin Elmer, catalog number 6005680). Cells were exposed to different concentrations of test compounds at 37° C., 5% CO2 for 72 hours immediately after seeding. Cell viability was acquired on a Perkin Elmer Envision 2104 multilabel reader using the CellTiter-Glo assay (Promega) according to the manufacturer's instructions.

human DHODH = human DHODH (Homo sapiens (Human), UniProt Q02127); experiment: DHODH Enzymatic Assay; type: biochemical; conditions: purified human DHODH, DCIP absorbance, end-point mode; read-out: hDHODH IC50
Procedure: The following assay is referred to herein as the “DHODH Enzymatic Assay.” To detect DHODH enzyme activities, dichloroindophenol (DCIP) is added as the final electron acceptor in the assay. DCIP can accept electrons from the reduced coenzyme Q generated in the assay, or from dihydroorotate (DHO) via FMN by binding presumably to the ubiquinone pocket. DCIP solutions are blue, with an intense absorbance around 600 nm, but becomes colorless upon reduction (J. Biol. Chem. (1986) 261, 11386). The assay buffer contained […], pH 7.5, 150 mM NaCl, 0.5 mM EDTA, and 0.1% Triton X-100 in MilliQ water. Substrate consisting of 20 mM DHO, 5 mM CoQ6, and 1 mM DCIP in assay buffer, initiates the reaction. The assay is run in end-point mode by quenching the reaction with the potent DHODH inhibitor brequinar. Absorbance measurements were obtained using the BMG Phera Star plate-reading spectrophotomer. Purified human DHODH was purchased from Proteros (cat. No. PR-0044). Chemicals were purchased from Sigma-Aldrich, Teknova, and Avanti Polar Lipids. Liquid handling was performed using Labcyte Echo and Formulatrix Tempest.

Sequence of human DHODH (Q02127 whole entry): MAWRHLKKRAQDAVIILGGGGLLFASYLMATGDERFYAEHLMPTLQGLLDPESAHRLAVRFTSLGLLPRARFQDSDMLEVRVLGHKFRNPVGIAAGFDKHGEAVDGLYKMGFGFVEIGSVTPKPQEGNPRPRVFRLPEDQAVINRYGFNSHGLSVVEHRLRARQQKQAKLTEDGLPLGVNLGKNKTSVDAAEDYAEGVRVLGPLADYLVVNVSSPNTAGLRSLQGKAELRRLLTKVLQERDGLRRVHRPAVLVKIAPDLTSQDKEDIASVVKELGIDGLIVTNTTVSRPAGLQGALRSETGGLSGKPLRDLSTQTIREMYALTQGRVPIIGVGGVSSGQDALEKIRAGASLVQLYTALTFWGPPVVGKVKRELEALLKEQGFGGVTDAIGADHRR

| Structure (SMILES) | IC50 [1] [nM] | IC50 (human DHODH) [nM] |
| --- | --- | --- |
| CCn1c(CO)nn(-c2ccc3c(=O)n(-c4c(F)cccc4Cl)cc(C4(C)CC4)c3c2)c1=O [Example 24, 2-(2-Chloro-6-fluorophenyl)-6-(4-ethyl-3-(hydroxymethyl)-5-oxo-4,5-dihydro-1H-1,2,4-triazol-1-yl)-4-(1-methylcyclopropyl)isoquinolin-1(2H)-one] | 1 | 1.65 |
| CCn1c(CO)nn(-c2ccc3c(=O)n(-c4ccccc4C)cc(N(C)C)c3c2)c1=O [Example 26, 4-(Dimethylamino)-6-(4-ethyl-3-(hydroxymethyl)-5-oxo-4,5-dihydro-1H-1,2,4-triazol-1-yl)-2-(o-tolyl)isoquinolin-1(2H)-one] | 20 | 46.5 |
| CCn1c(CO)nn(-c2cc3c(C(C)C)cn(-c4c(C)n[nH]c4Cl)c(=O)c3cc2F)c1=O [Example 31, 2-(5-Chloro-3-methyl-1H-pyrazol-4-yl)-6-(4-ethyl-3-(hydroxymethyl)-5-oxo-4,5-dihydro-1H-1,2,4-triazol-1-yl)-7-fluoro-4-isopropylisoquinolin-1(2H)-one] | 6 | 0.764 |
| C=C(C)c1cn(-c2ccccc2C)c(=O)c2cc(F)c(-n3nc(CO)n(CC)c3=O)nc12 [Example 32, 2-(4-Ethyl-3-(hydroxymethyl)-5-oxo-4,5-dihydro-1H-1,2,4-triazol-1-yl)-3-fluoro-8-(prop-1-en-2-yl)-6-(o-tolyl)-1,6-naphthyridin-5(6H)-one] | 2 | 1.01 |
| CCn1c(CO)nn(-c2nc3c(C)nn(-c4ccccc4C)c(=O)c3cc2F)c1=O [Example 33, 2-(4-Ethyl-3-(hydroxymethyl)-5-oxo-4,5-dihydro-1H-1,2,4-triazol-1-yl)-3-fluoro-8-methyl-6-(o-tolyl)pyrido[2,3-d]pyridazin-5(6H)-one] | > 100 | 240 |
| CCn1c(CO)nn(-c2nc3c(C(C)C)nn(-c4ccccc4C)c(=O)c3cc2F)c1=O [Example 34, 2-(4-Ethyl-3-(hydroxymethyl)-5-oxo-4,5-dihydro-1H-1,2,4-triazol-1-yl)-3-fluoro-8-isopropyl-6-(o-tolyl)pyrido[2,3-d]pyridazin-5(6H)-one] | 4 | 1.97 |
| C=C(C)c1cn(-c2c(F)cccc2Cl)c(=O)c2cc(F)c(-n3nc(CO)n(CC)c3=O)nc12 [Example 35, 6-(2-Chloro-6-fluorophenyl)-2-(4-ethyl-3-(hydroxymethyl)-5-oxo-4,5-dihydro-1H-1,2,4-triazol-1-yl)-3-fluoro-8-(prop-1-en-2-yl)-1,6-naphthyridin-5(6H)-one] | 1 | 1.15 |
| CCn1c(CO)nn(-c2nc3c(C(C)C)cn(-c4c(F)cccc4Cl)c(=O)c3cc2F)c1=O [Example 36, 6-(2-Chloro-6-fluorophenyl)-2-(4-ethyl-3-(hydroxymethyl)-5-oxo-4,5-dihydro-1H-1,2,4-triazol-1-yl)-3-fluoro-8-isopropyl-1,6-naphthyridin-5(6H)-one] | 0.4 | 0.356 |
| CCn1c(CO)nn(-c2nc3c([C@H](C)C(F)(F)F)cn(-c4ccccc4C)c(=O)c3cc2F)c1=O [Example 37, (S)-2-(4-Ethyl-3-(hydroxymethyl)-5-oxo-4,5-dihydro-1H-1,2,4-triazol-1-yl)-3-fluoro-6-(o-tolyl)-8-(1,1,1-trifluoropropan-2-yl)-1,6-naphthyridin-5(6H)-one] | 3 | 1.88 |
| CCn1c(CO)nn(-c2nc3c([C@@H](C)C(F)(F)F)cn(-c4ccccc4C)c(=O)c3cc2F)c1=O [Example 38, (R)-2-(4-Ethyl-3-(hydroxymethyl)-5-oxo-4,5-dihydro-1H-1,2,4-triazol-1-yl)-3-fluoro-6-(o-tolyl)-8-(1,1,1-trifluoropropan-2-yl)-1,6-naphthyridin-5(6H)-one] | 0.5 | 0.464 |
| CCn1c(CO)nn(-c2cc3c(C(C)C)cn(-c4scnc4C)c(=O)c3cc2F)c1=O [Example 39, 6-(4-Ethyl-3-(hydroxymethyl)-5-oxo-4,5-dihydro-1H-1,2,4-triazol-1-yl)-7-fluoro-4-isopropyl-2-(4-methylthiazol-5-yl)isoquinolin-1(2H)-one] | 40 | 13 |
| CCn1c(CO)nn(-c2nc3c(C(C)C)cn(-c4ccccc4C)c(=O)c3cc2F)c1=O [Example 40, 2-(4-Ethyl-3-(hydroxymethyl)-5-oxo-4,5-dihydro-1H-1,2,4-triazol-1-yl)-3-fluoro-8-isopropyl-6-(o-tolyl)-1,6-naphthyridin-5(6H)-one] | 0.8 | 0.802 |
| CCn1c(CO)nn(-c2cc3c(C(C)C)cn(-c4cc(C)ccc4F)c(=O)c3cc2F)c1=O [Example 41, 6-(4-Ethyl-3-(hydroxymethyl)-5-oxo-4,5-dihydro-1H-1,2,4-triazol-1-yl)-7-fluoro-2-(2-fluoro-5-methylphenyl)-4-isopropylisoquinolin-1(2H)-one] | 2 | 2.98 |
| C=C(C)c1cn(-c2cc(C)ccc2F)c(=O)c2cc(F)c(-n3nc(CO)n(CC)c3=O)cc12 [Example 42, 6-(4-Ethyl-3-(hydroxymethyl)-5-oxo-4,5-dihydro-1H-1,2,4-triazol-1-yl)-7-fluoro-2-(2-fluoro-5-methylphenyl)-4-(prop-1-en-2-yl)isoquinolin-1(2H)-one] | 0.9 | 1.69 |
| C=C(C)c1cn(-c2cc(C)ccc2Cl)c(=O)c2cc(F)c(-n3nc(CO)n(CC)c3=O)cc12 [Example 43, 2-(2-Chloro-5-methylphenyl)-6-(4-ethyl-3-(hydroxymethyl)-5-oxo-4,5-dihydro-1H-1,2,4-triazol-1-yl)-7-fluoro-4-(prop-1-en-2-yl)isoquinolin-1(2H)-one] | 0.4 | 0.917 |
| C=C(C)c1cn(-c2cc(OC)ccc2F)c(=O)c2cc(F)c(-n3nc(CO)n(CC)c3=O)cc12 [Example 44, 6-(4-Ethyl-3-(hydroxymethyl)-5-oxo-4,5-dihydro-1H-1,2,4-triazol-1-yl)-7-fluoro-2-(2-fluoro-5-methoxyphenyl)-4-(prop-1-en-2-yl)isoquinolin-1(2H)-one] | 0.7 | 2.22 |
| C=C(C)c1cn(-c2ccccc2Cl)c(=O)c2cc(F)c(-n3nc(CO)n(CC)c3=O)cc12 [Example 45, 2-(2-Chlorophenyl)-6-(4-ethyl-3-(hydroxymethyl)-5-oxo-4,5-dihydro-1H-1,2,4-triazol-1-yl)-7-fluoro-4-(prop-1-en-2-yl)isoquinolin-1(2H)-one] | 0.3 | 1.41 |
| C=C(C)c1cn(-c2ccccc2C)c(=O)c2cc(F)c(-n3nc(CO)n(CC)c3=O)cc12 [Example 46, 6-(4-Ethyl-3-(hydroxymethyl)-5-oxo-4,5-dihydro-1H-1,2,4-triazol-1-yl)-7-fluoro-4-(prop-1-en-2-yl)-2-(o-tolyl)isoquinolin-1(2H)-one] | 0.3 | 0.746 |
| C=C(C)c1cn(-c2cc(OC)ccc2Cl)c(=O)c2cc(F)c(-n3nc(CO)n(CC)c3=O)cc12 [Example 47, 2-(2-Chloro-5-methoxyphenyl)-6-(4-ethyl-3-(hydroxymethyl)-5-oxo-4,5-dihydro-1H-1,2,4-triazol-1-yl)-7-fluoro-4-(prop-1-en-2-yl)isoquinolin-1(2H)-one] | 0.7 | 1.21 |
